Results reported in US20120076899A1, “SHELF STABLE MONATIN SWEETENED BEVERAGE” (Cargill, Incorporated, priority 2009, published 2012).

Test: Presence of 3-methyl indole in stored monatin samples (GC, mass spectrometry, olfactometry)
Type: physicochemical
Settings: not detected in the initial samples (Day 0) nor in samples stored in the dark
Description: A compound described as having a musty flavor and odor during some of the organoleptic evaluations is described herein. […] The compound (3-methylindole; 3-MI; skatole) was identified using gas chromatography (GC), mass spectrometry, and olfactometry based on its retention time, mass spectra, and odor profile using the following method.
The volatile components from a sample were purged onto an absorbent and then thermally desorb them into the cold GC inlet for subsequent separation and identification by mass spectrometry. Simultaneously, the GC column effluent was split between the mass spec and olfactory port to determine the specific odor characteristics for compounds that contribute to the overall odor of the sample.
Each sample was extracted and analyzed in duplicate. […]
Each reconstructed total ion current chromatogram (RTICC) was manually reprocessed to 1) identify the compounds by using olfactory and mass spectral library matching. Compounds that were not detected by olfactory but which gave significant response were also identified, and 2) integrate the peaks to obtain areas for relative comparison to the other samples analyzed. […] Corrected areas for each compound were then converted to graphical form to more easily compare samples analyzed during the test.

Compound: Cc1c[nH]c2ccccc12 [3-methylindole]
- detection of 3-methylindole in stored monatin samples: only found in samples exposed to light
